From ChEMBL document CHEMBL4033723, “Succinamide derivatives of melampomagnolide B and their anti-cancer activities” (2017)

Columns and labels:
Type in all cases: functional
[1] = Induction of apoptosis in human M9-ENL1 cells assessed as cell death after 24 hrs by Annexin V/PI or 7-AAD staining based flow cytometry; conditions: M9-ENL1, 24 h, read-out: LC50 (the source's name)
[2] = tested on: CCRF-CEM; assay: Growth inhibition of human CCRF-CEM cells after 48 hrs by sulforhodamine B assay
[3] = tested on: HL-60(TB); assay: Growth inhibition of human HL-60(TB) cells after 48 hrs by sulforhodamine B assay; conditions: HL-60, 48 h
[4] = tested on: K562; assay: Growth inhibition of human K562 cells after 48 hrs by sulforhodamine B assay; conditions: K562, 48 h
[5] = tested on: MOLT-4; assay: Growth inhibition of human MOLT4 cells after 48 hrs by sulforhodamine B assay; conditions: MOLT-4, 48 h
[6] = tested on: RPMI-8226; assay: Growth inhibition of human RPMI8226 cells after 48 hrs by sulforhodamine B assay; conditions: RPMI-8226, 48 h
[7] = tested on: SR; assay: Growth inhibition of human SR cells after 48 hrs by sulforhodamine B assay
[8] = tested on: A549; assay: Growth inhibition of human A549/ATCC cells after 48 hrs by sulforhodamine B assay; conditions: A549, 48 h
[9] = tested on: HOP-92; assay: Growth inhibition of human HOP92 cells after 48 hrs by sulforhodamine B assay; conditions: HOP-92, 48 h
[10] = tested on: NCI-H226; assay: Growth inhibition of human NCI-H226 cells after 48 hrs by sulforhodamine B assay; conditions: NCI-H226, 48 h
[11] = tested on: NCI-H23; assay: Growth inhibition of human NCI-H23 cells after 48 hrs by sulforhodamine B assay; conditions: NCI-H23, 48 h
[12] = tested on: NCI-H322M; assay: Growth inhibition of human NCI-H322M cells after 48 hrs by sulforhodamine B assay
[13] = tested on: NCI-H460; assay: Growth inhibition of human NCI-H460 cells after 48 hrs by sulforhodamine B assay; conditions: NCI-H460, 48 h
[14] = tested on: NCI-H522; assay: Growth inhibition of human NCI-H522 cells after 48 hrs by sulforhodamine B assay; conditions: NCI-H522, 48 h
[15] = tested on: COLO 205; assay: Growth inhibition of human COLO205 cells after 48 hrs by sulforhodamine B assay; conditions: COLO 205, 48 h
[16] = tested on: HCC 2998; assay: Growth inhibition of human HCC2998 cells after 48 hrs by sulforhodamine B assay; conditions: HCC 2998, 48 h
[17] = tested on: HCT-116; assay: Growth inhibition of human HCT116 cells after 48 hrs by sulforhodamine B assay; conditions: HCT-116, 48 h
[18] = tested on: HCT-15; assay: Growth inhibition of human HCT15 cells after 48 hrs by sulforhodamine B assay; conditions: HCT-15, 48 h
[19] = tested on: HT-29; assay: Growth inhibition of human HT-29 cells after 48 hrs by sulforhodamine B assay; conditions: HT-29, 48 h
[20] = tested on: KM12; assay: Growth inhibition of human KM12 cells after 48 hrs by sulforhodamine B assay; conditions: KM12, 48 h
[21] = tested on: SW-620; assay: Growth inhibition of human SW620 cells after 48 hrs by sulforhodamine B assay; conditions: SW-620, 48 h
[22] = tested on: SF-268; assay: Growth inhibition of human SF268 cells after 48 hrs by sulforhodamine B assay; conditions: SF-268, 48 h
[23] = tested on: SF-295; assay: Growth inhibition of human SF295 cells after 48 hrs by sulforhodamine B assay; conditions: SF-295, 48 h
[24] = tested on: SF-539; assay: Growth inhibition of human SF539 cells after 48 hrs by sulforhodamine B assay; conditions: SF-539, 48 h
[25] = tested on: SNB-19; assay: Growth inhibition of human SNB19 cells after 48 hrs by sulforhodamine B assay; conditions: SNB-19, 48 h
[26] = tested on: SNB-75; assay: Growth inhibition of human SNB75 cells after 48 hrs by sulforhodamine B assay; conditions: SNB-75, 48 h
[27] = tested on: U-251; assay: Growth inhibition of human U251 cells after 48 hrs by sulforhodamine B assay; conditions: U-251, 48 h
[28] = tested on: LOX IMVI; assay: Growth inhibition of human LOXIMVI cells after 48 hrs by sulforhodamine B assay
[29] = tested on: Malme-3M; assay: Growth inhibition of human MALME-3M cells after 48 hrs by sulforhodamine B assay
[30] = tested on: M14; assay: Growth inhibition of human M14 cells after 48 hrs by sulforhodamine B assay; conditions: M14, 48 h
[31] = tested on: MDA-MB-435; assay: Growth inhibition of human MDA-MB-435 cells after 48 hrs by sulforhodamine B assay; conditions: MDA-MB-435, 48 h
[32] = tested on: SK-MEL-2; assay: Growth inhibition of human SK-MEL-2 cells after 48 hrs by sulforhodamine B assay; conditions: SK-MEL-2, 48 h
[33] = tested on: SK-MEL-28; assay: Growth inhibition of human SK-MEL-28 cells after 48 hrs by sulforhodamine B assay; conditions: SK-MEL-28, 48 h
[34] = tested on: SK-MEL-5; assay: Growth inhibition of human SK-MEL-5 cells after 48 hrs by sulforhodamine B assay; conditions: SK-MEL-5, 48 h
[35] = tested on: UACC-257; assay: Growth inhibition of human UACC257 cells after 48 hrs by sulforhodamine B assay; conditions: UACC-257, 48 h
[36] = tested on: UACC-62; assay: Growth inhibition of human UACC62 cells after 48 hrs by sulforhodamine B assay; conditions: UACC-62, 48 h
[37] = tested on: OVCAR-3; assay: Growth inhibition of human OVCAR3 cells after 48 hrs by sulforhodamine B assay; conditions: OVCAR-3, 48 h
[38] = tested on: OVCAR-4; assay: Growth inhibition of human OVCAR4 cells after 48 hrs by sulforhodamine B assay; conditions: OVCAR-4, 48 h
[39] = tested on: OVCAR-5; assay: Growth inhibition of human OVCAR5 cells after 48 hrs by sulforhodamine B assay; conditions: OVCAR-5, 48 h
[40] = tested on: OVCAR-8; assay: Growth inhibition of human OVCAR8 cells after 48 hrs by sulforhodamine B assay; conditions: OVCAR-8, 48 h
[41] = tested on: NCI/ADR-RES; assay: Growth inhibition of human NCI-ADR-RES cells after 48 hrs by sulforhodamine B assay
[42] = tested on: SK-OV-3; assay: Growth inhibition of human SKOV3 cells after 48 hrs by sulforhodamine B assay; conditions: SK-OV-3, 48 h
[43] = tested on: 786-0; assay: Growth inhibition of human 786-0 cells after 48 hrs by sulforhodamine B assay; conditions: 786-0, 48 h
[44] = tested on: A498; assay: Growth inhibition of human A498 cells after 48 hrs by sulforhodamine B assay; conditions: A498, 48 h
[45] = tested on: ACHN; assay: Growth inhibition of human ACHN cells after 48 hrs by sulforhodamine B assay
[46] = tested on: CAKI-1; assay: Growth inhibition of human Caki1 cells after 48 hrs by sulforhodamine B assay; conditions: CAKI-1, 48 h
[47] = tested on: RXF 393; assay: Growth inhibition of human RXF393 cells after 48 hrs by sulforhodamine B assay; conditions: RXF 393, 48 h
[48] = tested on: SN12C; assay: Growth inhibition of human SN12C cells after 48 hrs by sulforhodamine B assay
[49] = tested on: TK-10; assay: Growth inhibition of human TK10 cells after 48 hrs by sulforhodamine B assay; conditions: TK-10, 48 h
[50] = tested on: UO-31; assay: Growth inhibition of human UO31 cells after 48 hrs by sulforhodamine B assay; conditions: UO-31, 48 h
[51] = tested on: PC-3; assay: Growth inhibition of human PC3 cells after 48 hrs by sulforhodamine B assay; conditions: PC-3, 48 h
[52] = tested on: DU-145; assay: Growth inhibition of human DU145 cells after 48 hrs by sulforhodamine B assay; conditions: DU-145, 48 h
[53] = tested on: MCF7; assay: Growth inhibition of human MCF7 cells after 48 hrs by sulforhodamine B assay; conditions: MCF7, 48 h
[54] = tested on: MDA-MB-231; assay: Growth inhibition of human MDA-MB-231 cells after 48 hrs by sulforhodamine B assay; conditions: MDA-MB-231, 48 h
[55] = tested on: Hs-578T; assay: Growth inhibition of human Hs 578T cells after 48 hrs by sulforhodamine B assay
[56] = tested on: BT-549; assay: Growth inhibition of human BT549 cells after 48 hrs by sulforhodamine B assay; conditions: BT-549, 48 h
[57] = tested on: T47D; assay: Growth inhibition of human T47D cells after 48 hrs by sulforhodamine B assay
[58] = tested on: MDA-MB-468; assay: Growth inhibition of human MDA-MB-468 cells after 48 hrs by sulforhodamine B assay; conditions: MDA-MB-468, 48 h
[59] = Growth inhibition of human M9-ENL1 cells after 24 hrs by trypan blue assay; conditions: M9-ENL1, 24 h

SMILES: C=C1C(=O)O[C@H]2[C@H]1CC/C(COC(=O)CCC(=O)NCCCN1CCOCC1)=C\CC[C@@]1(C)O[C@@H]21
- CC50 [1]: 14 µM

SMILES: C=C1C(=O)O[C@H]2[C@H]1CC/C(COC(=O)CCC(=O)Nc1cccc(N)n1)=C\CC[C@@]1(C)O[C@@H]21
- CC50 [1]: 12 µM

SMILES: C=C1C(=O)O[C@H]2[C@H]1CC/C(COC(=O)CCC(=O)N1CCC(F)(F)CC1)=C\CC[C@@]1(C)O[C@@H]21
- CC50 [1]: 5.2 µM

SMILES: C=C1C(=O)O[C@H]2[C@H]1CC/C(COC(=O)CCC(=O)NCCCCCCCCCNC(=O)CCC(=O)OC/C1=C/CC[C@@]3(C)O[C@H]3[C@H]3OC(=O)C(=C)[C@@H]3CC1)=C\CC[C@@]1(C)O[C@@H]21
- GI50 [2]: 0.28 µM
- GI50 [3]: 0.44 µM
- GI50 [4]: 0.45 µM
- GI50 [5]: 0.64 µM
- GI50 [6]: 0.5 µM
- GI50 [7]: 0.33 µM
- GI50 [8]: 13.8 µM
- GI50 [9]: 1.4 µM
- GI50 [10]: 1.9 µM
- GI50 [11]: 2.23 µM
- GI50 [12]: 16.3 µM
- GI50 [13]: 2.18 µM
- GI50 [14]: 0.42 µM
- GI50 [15]: 1.22 µM
- GI50 [16]: 2.25 µM
- GI50 [17]: 0.86 µM
- GI50 [18]: 2.63 µM
- GI50 [19]: 1.33 µM
- GI50 [20]: 4.6 µM
- GI50 [21]: 0.54 µM
- GI50 [22]: 2.92 µM
- GI50 [23]: 7.68 µM
- GI50 [24]: 1.85 µM
- GI50 [25]: 3.38 µM
- GI50 [26]: 1.47 µM
- GI50 [27]: 3.01 µM
- GI50 [28]: 0.37 µM
- GI50 [29]: 1.94 µM
- GI50 [30]: 1.65 µM
- GI50 [31]: 1.63 µM
- GI50 [32]: 2.12 µM
- GI50 [33]: 1.47 µM
- GI50 [34]: 1.88 µM
- GI50 [35]: 2.06 µM
- GI50 [36]: 1.69 µM
- GI50 [37]: 1.29 µM
- GI50 [38]: 1.48 µM
- GI50 [39]: 1.7 µM
- GI50 [40]: 3.24 µM
- GI50 [41]: 26.7 µM
- GI50 [42]: 5.8 µM
- GI50 [43]: 1.49 µM
- GI50 [44]: 2.72 µM
- GI50 [45]: 2.1 µM
- GI50 [46]: 10.5 µM
- GI50 [47]: 1.01 µM
- GI50 [48]: 2.69 µM
- GI50 [49]: 1.78 µM
- GI50 [50]: 3.9 µM
- GI50 [51]: 2.53 µM
- GI50 [52]: 1.75 µM
- GI50 [53]: 0.42 µM
- GI50 [54]: 1.58 µM
- GI50 [55]: 2.99 µM
- GI50 [56]: 0.66 µM
- GI50 [57]: 1.49 µM
- GI50 [58]: 0.98 µM
- GI50 [59]: 0.44 µM
- CC50 [1]: 6.5 µM

SMILES: C=C1C(=O)O[C@H]2[C@H]1CC/C(COC(=O)CCC(=O)Nc1n[nH]c(SC)n1)=C\CC[C@@]1(C)O[C@@H]21
- CC50 [1]: 13 µM
